According to patent US10669252B2, “Benzazepine derivative, preparation method, pharmaceutical composition and use thereof” (SHANGHAI DE NOVO PHARMATECH CO., LTD., priority 2016, dated 2020):

Biological target: T1, TLR8 (Homo sapiens, UniProt Q9NR97)
T1 construct: host or cells: HEK293 (HEK-BLUE-hTLR8)
T1 sequence (Q9NR97 27-1041): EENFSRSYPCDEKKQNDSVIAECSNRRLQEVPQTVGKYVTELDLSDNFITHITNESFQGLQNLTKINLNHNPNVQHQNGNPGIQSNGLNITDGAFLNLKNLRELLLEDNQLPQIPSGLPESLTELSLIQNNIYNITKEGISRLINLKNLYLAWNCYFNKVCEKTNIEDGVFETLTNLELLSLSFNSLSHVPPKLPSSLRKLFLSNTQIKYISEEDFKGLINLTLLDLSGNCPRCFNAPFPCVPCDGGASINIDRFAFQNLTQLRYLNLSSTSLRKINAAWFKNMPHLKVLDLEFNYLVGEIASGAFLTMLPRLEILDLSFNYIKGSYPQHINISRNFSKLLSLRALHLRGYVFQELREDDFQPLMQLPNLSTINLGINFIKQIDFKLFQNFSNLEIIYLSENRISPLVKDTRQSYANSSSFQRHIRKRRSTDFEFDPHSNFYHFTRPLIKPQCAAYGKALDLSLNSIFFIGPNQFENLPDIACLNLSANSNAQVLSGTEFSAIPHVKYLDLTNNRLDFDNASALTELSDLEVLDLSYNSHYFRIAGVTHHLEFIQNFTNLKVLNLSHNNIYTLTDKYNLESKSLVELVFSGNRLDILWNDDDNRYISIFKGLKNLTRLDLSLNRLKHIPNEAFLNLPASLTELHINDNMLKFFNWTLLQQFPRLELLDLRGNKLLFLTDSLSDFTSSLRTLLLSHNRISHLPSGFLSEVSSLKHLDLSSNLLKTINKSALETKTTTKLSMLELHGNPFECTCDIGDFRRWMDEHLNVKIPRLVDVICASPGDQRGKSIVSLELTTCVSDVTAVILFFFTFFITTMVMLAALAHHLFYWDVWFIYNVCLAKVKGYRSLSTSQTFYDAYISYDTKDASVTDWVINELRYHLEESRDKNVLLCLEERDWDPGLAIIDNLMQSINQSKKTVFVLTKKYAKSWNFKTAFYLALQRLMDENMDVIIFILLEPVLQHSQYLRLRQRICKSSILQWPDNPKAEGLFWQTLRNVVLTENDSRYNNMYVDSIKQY
Test: TLR8 cell based assay (HEK-BLUE-hTLR8, SEAP reporter linked to NF-κB activation)
Conditions: HEK-BLUE-hTLR8 cells
Procedure: In this assay, the bioactivity of compound of formula Iw as measured using a cell based assay. The assay was performed in human embryonic kidney cells (HEK293) expressing TLR8 or other TLR family members such as TLR4, TLR7 and TLR9 (for selectivity screens). The activity of specific TLR agonists was assessed using the secretory embryonic alkaline phosphatase (SEAP) reporter gene that is linked to NF-κB activation in response to TLR stimulation. The SEAP activity was measured using the Quanti-Blue substrate (InvivoGen) after TLR agonist treatment.
The detailed experimental method is as follow:
HEK-BLUE-hTLR8 cell line was purchased from InvivoGen. The cells were cultured in Dulbecco's Modified Eagle's Media containing 4.5 g/L […] (Sigma-Aldrich) and 10% FBS. The cells were cultured at 37° C., 95% humidity and 5% CO2.
Test concentrations of the compounds ranged from 0.5 nM to 15 μM with 10 points. A known TLR8 agonist was added as positive control and 1 μl of DMSO was added as negative control.
The cells were prepared as follows: The cells were removed from the incubator and growth medium was discarded. The cells were gently rinsed with pre-warmed 10 ml PBS for a T-150 flask. 12 ml pre-warmed growth medium was added, and the cells were detached by tapping the flask. Cell clumps were dissociated by gently pipetting up and down. The cells were counted. Single cell suspension was prepared at 200,000 cells per ml in growth medium and 200 μl of the cell suspension (40,000 cells per well) were immediately added to each well of the plate. The final DMSO concentration of each well was 0.5%.
The cells were cultured and treated with the compounds at 37° C., 5% CO2 for 24 h.
20 μL of the supernatant of each well were added to 180 μL of QUANTI-Blue, and the plates were incubated at 37° C. for 1.5 hour. Optical density was measured using a spectrophotometer at 650 nm (OD data). Activivation was calculated by using the equation below: Activivation %=(Compound OD mean value−DMSO OD mean value)/(positive control OD mean value−DMSO OD mean value)×100
The data were analyzed using the GraphPad to get EC50 values and fitting dose response curves of the compounds.

[1] = 24 h treatment, SEAP/QUANTI-Blue readout

Row | Structure (SMILES) | EC50 [1] [nM] | EC50 (bound stated) [nM]
1 | CCCN(CCC)C(=O)C1=Cc2ccc(-c3ccc4c(n3)CN(CCO)C4=O)cc2N=C(N)C1 [Compound 1-6-2] | 100 to 1000 | 
2 | CCCN(CCC)C(=O)C1=Cc2ccc(-c3ccc4c(=O)n(Cc5ccno5)ccc4c3)cc2N=C(N)C1 [Compound 1-2-29] | 100 to 1000 | 
3 | CCCN(CCC)C(=O)C1=Cc2ccc(-c3ccc4c(=O)n(CCNS(C)(=O)=O)cnc4c3)cc2N=C(N)C1 [Compound 1-7-6] | 100 to 1000 | 
4 | CCCN(CCC)C(=O)C1=Cc2c(Cl)cc(-c3ccc4c(=O)n(CCS(C)(=O)=O)ncc4c3)cc2N=C(N)C1 [Compound 2-2-3] | 100 to 1000 | 
5 | CCCN(CCC)C(=O)C1=Cc2ccc(-c3ccc4c(=O)n(CC(N)=O)c(=O)n(C)c4c3)cc2N=C(N)C1 [Compound 1-9-3] | 100 to 1000 | 
6 | CCCN(CCC)C(=O)C1=Cc2c(cc(-c3ccc4c(=O)n(CCS(C)(=O)=O)ncc4c3)cc2OC)N=C(N)C1 [Compound 2-2-1] | 100 to 1000 | 
7 | CCCN(CCC)C(=O)C1=Cc2ccc(-c3ccc4c(=O)n(CCP(C)(=O)OCC)ncc4c3)cc2N=C(N)C1 (stereo not shown) [Compound 1-8-18] | < 100 | 
8 | CCCN(CCC)C(=O)C1=Cc2ccc(-c3ccc4c(=O)[nH]ccc4c3)cc2N=C(N)C1 [Compound 1-1-1] | 1000 to 10000 | 
9 | CCCN(CCC)C(=O)C1=Cc2ccc(-c3ccc4c(=O)n(Cc5nnn[nH]5)ccc4c3)cc2N=C(N)C1 [Compound 1-2-38] | 1000 to 10000 | 
10 | CCCN(CCC)C(=O)C1=Cc2ccc(-c3cc4c(=O)n(CC)ccc4n3C)cc2N=C(N)C1 [Compound 1-5-1] | 1000 to 10000 | 
11 | CCCN(CCC)C(=O)C1=Cc2ccc(-c3ccc4c(=O)n(CC(C)C)ccc4c3)cc2N=C(N)C1 [Compound 1-2-5] | 100 to 1000 | 
12 | CCCN(CCC)C(=O)C1=Cc2ccc(-c3ccc4c(=O)n(Cc5ccccc5)ncc4c3)cc2N=C(N)C1 [Compound 1-8-19] | 100 to 1000 | 
13 | CCCN(CCC)C(=O)C1=Cc2ccc(-c3cc4c(=O)n(CC)ccc4s3)cc2N=C(N)C1 [Compound 1-5-2] | 1000 to 10000 | 
14 | CCCN(CCC)C(=O)C1=Cc2ccc(-c3ccc4c(=O)n(CCc5ccccn5)ccc4c3)cc2N=C(N)C1 [Compound 1-2-50] | 100 to 1000 | 
15 | CCCN(CCC)C(=O)C1=Cc2ccc(-c3ccc4c(=O)n(CC(N)=O)cnc4c3)cc2N=C(N)C1 [Compound 1-7-1] | 100 to 1000 | 
16 | CCCN(CCC)C(=O)C1=Cc2ccc(-c3cnc4c(c3)CN(CCO)C4=O)cc2N=C(N)C1 [Compound 1-6-1] | 100 to 1000 | 
17 | CCCN(CCC)C(=O)C1=Cc2c(F)cc(-c3ccc4c(=O)n(CCS(C)(=O)=O)c(=O)n(C)c4c3)cc2N=C(N)C1 [Compound 1-10-10] | 100 to 1000 | 
18 | CCCN(CCC)C(=O)C1=Cc2ccc(-c3ccc4c(=O)n(CC(=O)N5CCCC5)ccc4c3)cc2N=C(N)C1 [Compound 1-2-26] | < 100 | 
19 | CCCN(CCC)C(=O)C1=Cc2ccc(-c3ccc4c(=O)n(CCNS(N)(=O)=O)ccc4c3)cc2N=C(N)C1 [Compound 1-2-20] | 100 to 1000 | 
20 | CCCN(CCC)C(=O)C1=Cc2ccc(-c3ccc4c(=S)n(CCS(C)(=O)=O)ncc4c3)cc2N=C(N)C1 [Compound 1-14-2] | < 100 | < 10
21 | CCCN(CCC)C(=O)C1=Cc2ccc(-c3ccc4c(=O)n(CCc5cnccn5)ccc4c3)cc2N=C(N)C1 [Compound 1-2-47] | 100 to 1000 | 
22 | CCCN(CCC)C(=O)C1=Cc2ccc(-c3ccc4c(=O)n(Cc5nc(C)cc(C)n5)ncc4c3)cc2N=C(N)C1 [Compound 1-8-17] | < 100 | < 10
23 | CCCN(CCC)C(=O)C1=Cc2ccc(-c3ccc4c(=O)n(CC(C)(C)O)c(=O)n(C)c4c3)cc2N=C(N)C1 [Compound 1-9-5] | 100 to 1000 | 

The remaining lines, values ahead:

Row | EC50 [1] [nM] | EC50 (bound stated) [nM] | Structure (SMILES)
24 | < 100 |  | CCCN(CCC)C(=O)C1=Cc2ccc(-c3ccc4c(c3)CN(CC)C4=O)cc2N=C(N)C1 [Compound 1-3-1]
25 | < 100 |  | CCCN(CCC)C(=O)C1=Cc2c(F)cc(-c3ccc4c(=O)n(CC(=O)NC)ccc4c3)cc2N=C(N)C1 [Compound 1-10-3]
26 | < 100 |  | CCCN(CCC)C(=O)C1=Cc2ccc(-c3ccc4c(=O)n(Cc5nccs5)ncc4c3)cc2N=C(N)C1 [Compound 1-8-10]
27 | < 100 |  | CCCN(CCC)C(=O)C1=Cc2ccc(-c3ccc4c(=S)n(Cc5cnccn5)ccc4c3)cc2N=C(N)C1 [Compound 1-14-5]
28 | < 100 |  | CCCN(CCC)C(=O)C1=Cc2ccc(-c3ccc4c(=O)n(CC(C)(C)O)cnc4c3)cc2N=C(N)C1 [Compound 1-7-5]
29 | < 100 | < 10 | CCCN(CCC)C(=O)C1=Cc2ccc(-c3ccc4c(=O)n(Cc5nnn(C)n5)ccc4c3)cc2N=C(N)C1 [Compound 1-2-39]
30 | < 100 |  | CCCN(CCC)C(=O)C1=Cc2c(Cl)cc(-c3ccc4c(=O)n(Cc5ncccn5)ncc4c3)cc2N=C(N)C1 [Compound 2-3-1]
31 | < 100 |  | CCCN(CCC)C(=O)C1=Cc2ccc(-c3ccc4c(=O)n(CCn5cccn5)ncc4c3)cc2N=C(N)C1 [Compound 1-8-13]
32 | < 100 |  | CCCN(CCC)C(=O)C1=Cc2ccc(-c3ccc4c(=O)n(Cc5nc(OC)cc(OC)n5)ccc4c3)cc2N=C(N)C1 [Compound 1-2-46]
33 | < 100 |  | CCCN(CCC)C(=O)C1=Cc2ccc(-c3ccc4c(=O)n(Cc5nnc(C)o5)ccc4c3)cc2N=C(N)C1 [Compound 1-2-30]
34 | < 100 | < 10 | CCCN(CCC)C(=O)C1=Cc2ccc(-c3ccc4c(=O)n(CCCS(C)(=O)=O)ncc4c3)cc2N=C(N)C1 [Compound 1-8-6]
35 | < 100 |  | CCCN(CCC)C(=O)C1=Cc2ccc(-c3ccc4c(=O)n(Cc5nc(OC)cc(OC)n5)ncc4c3)cc2N=C(N)C1 [Compound 1-8-21]
36 | < 100 |  | CCCN(CCC)C(=O)C1=Cc2c(F)cc(-c3ccc4c(=O)n(CC(=O)NC)cnc4c3)cc2N=C(N)C1 [Compound 1-10-8]
37 | < 100 | < 10 | [2H]c1cc(-c2ccc3c(=O)n(Cc4ncccn4)ncc3c2)cc2c1C=C(C(=O)N(CCC)CCC)CC(N)=N2 [Compound 2-3-3]
38 | < 100 |  | CCCN(CCC)C(=O)C1=Cc2ccc(-c3ccc4c(=O)n(CC[S+](C)[O-])ncc4c3)cc2N=C(N)C1 (stereo not shown) [Compound 1-8-11]
39 | < 100 |  | CCCN(CCC)C(=O)C1=Cc2c(F)cc(-c3ccc4c(=O)n(CC(=O)NC)ncc4c3)cc2N=C(N)C1 [Compound 1-10-6]
40 | < 100 |  | CCCN(CCC)C(=O)C1=Cc2ccc(-c3ccc4c(=O)n(CCn5ccnc5)ccc4c3)cc2N=C(N)C1 [Compound 1-2-37]
41 | < 100 |  | CCCN(CCC)C(=O)C1=Cc2ccc(-c3ccc4c(=O)n(CCNS(C)(=O)=O)ncc4c3)cc2N=C(N)C1 [Compound 1-8-8]
42 | < 100 |  | CCCN(CCC)C(=O)C1=Cc2ccc(-c3ccc4c(=O)n(Cc5nccn5C(C)C)ccc4c3)cc2N=C(N)C1 [Compound 1-2-49]
43 | < 100 |  | CCCN(CCC)C(=O)C1=Cc2ccc(-c3ccc4c(=O)n(CCC(N)=O)ncc4c3)cc2N=C(N)C1 [Compound 1-8-7]
44 | < 100 | < 10 | CCCN(CCC)C(=O)C1=Cc2ccc(-c3ccc4c(=S)n(Cc5ncccn5)ncc4c3)cc2N=C(N)C1 [Compound 1-14-1]
45 | < 100 |  | CCCN(CCC)C(=O)C1=Cc2c(F)cc(-c3ccc4c(=O)n(CCS(C)(=O)=O)ncc4c3)cc2N=C(N)C1 [Compound 1-10-2]
46 | < 100 |  | CCCN(CCC)C(=O)C1=Cc2ccc(-c3ccc4c(=S)n(Cc5cnccn5)ncc4c3)cc2N=C(N)C1 [Compound 1-14-6]
